Laboratory results reported in patent publication US11919972B2, “Peptide libraries with non-canonical amino acids” (REGENERON PHARMACEUTICALS, INC., priority 2018, dated 2024).
Square brackets hold non-standard residues; d marks the D form. Ends that are not written are not given here. Ala(cPr) = N[C@@H](CC1CC1)C(=O)O

Columns and labels:
CD8+ SupT1 cells [1] = assay: Flow cytometry binding to CD8+ SupT1 and CD8− Jurkat cells; type: cell-based; conditions: FIG. 1
From the text: FIG. 1 is a graph binding of some example peptides to CD8+ cells (SuppT1 cells) and CD8− cells (Jurkat cells).
The hits identified in the non-canonical screen were further evaluated in CD8+ SupT1 and CD8− Jurkat cells by flow cytometry.

CD8+ SupT1 cells [2] = assay: Screen of focused OBOC peptide library against CD8+ cells; type: cell-based; conditions: 10% FBS
Description: In addition to screening the focused library against recombinant human CD8 protein, the library was screened against cells. Non-specific PCCs were identified and removed by an anti-screen against CD8− Jurkat cells. The pre-cleared library entered into a screen against CD8+ SupT1 cells in 2% FBS for 1 h at 4° C. […] Non-canonical amino acids including cyclopropyl alanine, thiazolyl alanine, 4-fluorophenylalanine, and 1-methyltryptophan were identified among the hits. The consensus sequence from the hits in Table 6 is trrkr (SEQ ID NO:30).
Because of the large number of electrostatic hits in the screen with 2% FBS, additional screens were performed varying the blocking conditions to decrease the quantity of electrostatic hits. In particular, screens using 10% FBS gave no hits with any electrostatic amino acids. These conditions ultimately identified tnpks (SEQ ID NO:31) and tp(CyA)k(Fp).

Substance | binding to CD8 compared with parent compound tfpkk (CD8+ SupT1 cells [1]) | hit in CD8+ cell screen with varied blocking conditions (CD8+ SupT1 cells [2])
tp(CyA)k(FP): hit sequence following CD8+ cell screen; also identified in 10% FBS screen ([dT][dP][Ala(cPr)][dK]X; not fully specified (residue 5); printed as tp(CyA)k(FP)) | improved binding to CD8 over the parent compound | identified
tnpks: hit identified in CD8+ cell screen using 10% FBS (TNPKS; (1)..(5) D amino acids) |  | identified
